Experiments:
[1] = test system: TCR4-expressing T cells co-cultured with HLA-A3+ antigen presenting cells (Cos-7); assay: TNFα production by TCR4-transduced T cells (intracellular cytokine staining); conditions: Conc. 100 (unit not given), mean of three replicates
T cells = conditions: high, supraphysiological concentrations; cited from earlier work
HLA-A3 [2] = target: T1, HLA-A3 (Homo sapiens, UniProt P04439); set-up: method as in 2 sources, one per row (each row's own in cited_ref): ref 15 (a number printed in a supplementary file, which may have a reference list of its own: not looked up in the article's list) ||| ref 10, ref 15; conditions: cited from earlier work
T1 construct: the extracellular domain of the MHC heavy chain, β2-microglobulin, TCR α and β chains; made in house

HLA-A3 [3] = target: T1, HLA-A3; assay: Peptide dissociation from HLA-A3 by fluorescence anisotropy; assay type: binding
[4] = test system: TCR3-expressing T cells co-cultured with HLA-A3+ antigen presenting cells (Cos-7); assay: TNFα production by TCR3-transduced T cells (intracellular cytokine staining); conditions: Conc. 100 (unit not given), mean of three replicates
[5] = test system: TCR4-expressing T cells co-cultured with HLA-A3+ antigen presenting cells (Cos-7); assay: CD107a degranulation of TCR4-transduced T cells, peptide-pulsed HLA-A3+ APC (flow cytometry); conditions: for CD107a, absolute frequency: TCR4, 6 h co-culture, E:T 1:1, mean of three replicates
Experimental: TCR-T cells were utilized for downstream functional analysis at days 5–8 post transduction.
Cos-7 cells were electroporated with 100 μg/mL of HLA-A*03:01 mRNA and plated into 96-well round-bottom plates overnight. […] Cells were washed with 1× PBS to remove any unbound peptide. […] Cells were washed again with PBS and then fixed and permeabilized for 15 min at 4 °C. […] All antibodies were used at a final concentration of 5 μg/mL. Finally, cells were washed with perm-wash buffer, suspended in 2% FBS in PBS, and data acquired on an X20 LSR Fortessa flow cytometer with the BD FACSDiva software.

HLA-A3 [6] = target: T1, HLA-A3; assay: 19F NMR of 5F-Trp-substituted peptide/HLA-A3; conditions: 5F-Trp6, 0.3 mM complex, pH 7.4, 5 °C
Experimental: ^19F NMR spectra were recorded using a Bruker 600 MHz NMR instrument with a QCI cryogenic probe at NMRFAM, University of Wisconsin-Madison. All proteins were solubilized in 10 mM HEPES, 150 mM NaCl, pH 7.4 with 10% D2O (Cambridge Isotope Laboratories DLM-4-25).
NMR probe temperature was maintained at a calibrated value of 5.2 °C. […] To improve the signal/noise ratio, we compared ^19F 1D spectra recorded with and without proton decoupling. Decoupling caused a noticeable reduction of the signal intensity of the ^19F nuclear spin in the context of the complexes; therefore, all spectra were collected un-decoupled to maximize sensitivity. The reference frequency of the ^19F channel was set through internal routines of the Topspin acquisition software after the spectrometer was locked on D2O. The recycle delay was optimized to find the best compromise between the longitudinal relaxation and the repetition rate for signal averaging. The optimal values of D1 = 0.4 s and AQ = 0.59 s were used in all experiments. One-dimensional fluorine experiments were recorded with the pulse program zgflqn.F from the standard Bruker library with TD1 = 134,078 points and a spectral width (SW) of 200 ppm. […] The 4 h data blocks were checked individually for a possible frequency drift (which was not detected) and added to obtain combined datasets with improved signal/noise ratio. […]

HLA-A3 [7] = target: T1, HLA-A3; conditions: PIK3CA–HLA-A3 complex; quoted in peer review; cited from earlier work

T1 sequence (P04439 25-308 limits assumed): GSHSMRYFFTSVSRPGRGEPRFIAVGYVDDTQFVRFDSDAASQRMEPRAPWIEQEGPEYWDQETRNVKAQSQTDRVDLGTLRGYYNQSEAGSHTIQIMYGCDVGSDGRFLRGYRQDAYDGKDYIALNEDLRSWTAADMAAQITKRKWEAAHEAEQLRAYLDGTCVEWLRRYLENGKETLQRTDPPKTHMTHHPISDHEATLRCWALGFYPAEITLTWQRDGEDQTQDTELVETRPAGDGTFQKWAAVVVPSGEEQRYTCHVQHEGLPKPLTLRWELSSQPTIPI
T1 sequence (P61769 21-119 partner): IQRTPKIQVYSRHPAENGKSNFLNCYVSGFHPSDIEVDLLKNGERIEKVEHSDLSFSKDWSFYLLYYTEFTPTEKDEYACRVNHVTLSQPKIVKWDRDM

**Q.** Which “TNFα, absolute frequency” value [1] does the source give for “AHHGGWTTK [WT peptide, wild-type PI3Kα peptide, His at position 2, presented by HLA-A3]” here?
**A.** The value was 2.4.

**Q.** And the T cell responses (T cells)?
**A.** Its T cell responses is “no responses were seen”.

**Q.** And the “half-life of peptide/HLA-A3 complex” value (HLA-A3 [2]; 37 °C (b252/b262 context), quoted in peer review)?
**A.** The value was 4.8 min.

**Q.** What about the “half-life, peptide dissociation” value (HLA-A3 [2]; HLA-A3, 37 °C, fluorescence anisotropy) of the same sequence?
**A.** The value was 4.82 min.

**Q.** And the “peptide/HLA-A3 dissociation in words” value (HLA-A3 [3]; 4 °C, 100 nM fluorescein-labeled peptide/HLA-A3, 100 μM unlabeled peptide, pH 7.4)?
**A.** Its value is “only a small amount of dissociation observed over an extended period”.

**Q.** What about the “peptide/HLA-A3 stability in words” value (HLA-A3 [3]; 37 °C and 25 °C, 100 nM fluorescein-labeled peptide/HLA-A3, pH 7.4) of the same sequence?
**A.** The value was “less stable at 37 °C and 25 °C”.

**Q.** What about the “TNFα, absolute frequency” value [4] of the same sequence?
**A.** The value was 4.823.

**Q.** What about the “CD107a, absolute frequency” value ([5]; peptide 0.001 ug/mL) of the same sequence?
**A.** Its value is 1.367.

**Q.** And the “CD107a, absolute frequency” value ([5]; peptide 0.01 ug/mL)?
**A.** The value was 3.473.

**Q.** What about the “CD107a, absolute frequency” value ([5]; peptide 0.1 ug/mL) of the same sequence?
**A.** The value was 1.267.

**Q.** What about the “CD107a, absolute frequency” value ([5]; peptide 1 ug/mL) of the same sequence?
**A.** The value was 1.09.

**Q.** What about the “CD107a, absolute frequency” value ([5]; peptide 10 ug/mL) of the same sequence?
**A.** Its value is 1.843.

**Q.** What about the “CD107a, absolute frequency” value ([5]; peptide 1.00E-05 ug/mL) of the same sequence?
**A.** Its value is 1.503.

**Q.** What about the “stimulation (CD107a)” value ([5]; TCR4 T cells, peptide concentrations as high as 10 μM) of the same sequence?
**A.** Its value is “no stimulation was evident”.

**Q.** And the “share of remaining 19F population” value (HLA-A3 [6]; broad peak at –[…])?
**A.** The value was “roughly 50%”.

**Q.** What about the “share of total 19F signal” value (HLA-A3 [6]; sharp peak at –125.12 ppm (degradation)) of the same sequence?
**A.** The value was “about 19%”.

**Q.** What about the “melting temperature (thermal stability)” value (HLA-A3 [7]) of the same sequence?
**A.** The value was 37 oC.
